The values below are quoted from earlier work in US20220184026A1, “COMPOSITIONS OF FULVIC ACID AND CANNABINOID AND USES THEREOF” (Omni Bioceutical Innovations, Inc., priority 2019, published 2022).

This data set concerns chronic wounds. On the set-up: key: N.S. = not statistically significant.

Read-outs that look alike come from different tables or passages of the source.

With basic fibroblast growth factor [bFGF], the Results result by setting is: (Richard et al., diabetic wounds (n=17), 0.25 to 0.75 μg/cm^2 daily) “N.S”; (Robson et al., pressure wounds (n=50), 1, 5, and 10 μg/cm^2) “N.S”.

In the case of “granulocyte-macrophage colony-stimulating factor [GM-CSF]”, where the note is “da Costa et al., venous + arterial wounds (n=25), 400 μg injected once around the wound”, the Results entry is on record as “N.S”.

human growth hormone [HGH]: the Results result (Rasmussen et al., venous wounds (n=37), 1 IU/cm^2 per week) was “N.S”.

As to interleukin-1B [IL-1B], for the setting “Robson et al., pressure wounds (n=25), 0.01, 0.1, and 1 μg/cm^2 daily”, the Results entry is reported as “N.S”.

Turning to “epidermal growth factor (NSDSECPLSHDGYCLHDGVCMYIEALDKYACNCVVGYIGERCQYRDLKWWELR; not fully specified; Epidermal growth factor; UniProt P01133 971-1023, looked up) [EGF]”, the Results result (Falanga et al., venous wounds (n=44), 10 μg/mL twice per day) is given as “N.S”.
